# Target: T1, aldosterone receptor (Rattus norvegicus, UniProt P22199)
# T1 construct: centrifuged at 105,000 g for 30 minutes, and then a supernatant was collected as a renal soluble fraction; from tissue; host or cells: rat kidney (adrenalectomized rat), 105,000 g supernatant (cytosol)
# T1 sequence (P22199 1-981): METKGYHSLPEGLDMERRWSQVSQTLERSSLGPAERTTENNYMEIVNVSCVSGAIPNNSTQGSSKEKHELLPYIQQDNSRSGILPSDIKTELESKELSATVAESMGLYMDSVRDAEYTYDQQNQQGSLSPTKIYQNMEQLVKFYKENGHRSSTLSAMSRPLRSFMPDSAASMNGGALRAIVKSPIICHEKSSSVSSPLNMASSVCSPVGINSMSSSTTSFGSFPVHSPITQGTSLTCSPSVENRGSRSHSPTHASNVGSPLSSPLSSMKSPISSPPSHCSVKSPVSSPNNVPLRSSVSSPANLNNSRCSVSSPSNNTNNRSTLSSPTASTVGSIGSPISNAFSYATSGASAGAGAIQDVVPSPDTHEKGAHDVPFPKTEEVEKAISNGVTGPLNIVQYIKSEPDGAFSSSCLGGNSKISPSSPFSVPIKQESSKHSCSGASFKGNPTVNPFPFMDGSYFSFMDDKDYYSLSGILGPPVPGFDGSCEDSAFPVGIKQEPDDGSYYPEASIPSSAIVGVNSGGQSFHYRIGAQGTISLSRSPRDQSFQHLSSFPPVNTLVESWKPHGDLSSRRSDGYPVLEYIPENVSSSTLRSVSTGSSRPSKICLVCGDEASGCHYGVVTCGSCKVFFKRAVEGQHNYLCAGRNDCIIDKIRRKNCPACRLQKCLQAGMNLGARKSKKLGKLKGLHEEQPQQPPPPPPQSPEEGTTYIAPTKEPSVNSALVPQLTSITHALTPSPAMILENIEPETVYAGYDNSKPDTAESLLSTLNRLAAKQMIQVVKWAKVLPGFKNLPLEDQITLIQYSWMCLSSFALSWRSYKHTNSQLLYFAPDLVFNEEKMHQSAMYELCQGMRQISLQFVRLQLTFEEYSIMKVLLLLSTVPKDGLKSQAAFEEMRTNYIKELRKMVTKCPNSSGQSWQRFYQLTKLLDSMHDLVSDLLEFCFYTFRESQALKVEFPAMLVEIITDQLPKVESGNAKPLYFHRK
# Assay: Binding inhibition test for aldosterone receptor ([3H]aldosterone, rat renal soluble fraction)
# Conditions: [3H]aldosterone 2 nM, rat renal soluble fraction, in the presence of 2 μM RU-486, 4° C. about 18 hours; read-out: MR IC50
# How it was run: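 Incubation: ~18 h at 4 °C with 2 μM RU-486 to block glucocorticoid receptor, using kidney cytosol from adrenalectomized rats; free ligand removed with dextran-charcoal before scintillation counting.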
row,IC50 [µM],Compound
1,< 10,CCOCc1cc(C(=O)Nc2ccc(S(N)(=O)=O)c(OC)c2)ccc1-c1cccnc1OCC [Example 547]
2,0.62,COc1cc(C(=O)Nc2ccc(-c3ccccc3C(F)(F)F)c(Cc3nccn3C)c2)ccc1S(N)(=O)=O [Example 550]
3,0.24,COc1cc(NC(=O)c2ccc(-c3ccccc3OC(F)(F)F)c(N)c2)ccc1S(N)(=O)=O [Example 560]
4,0.1,CCN(CC)c1cc(C(=O)Nc2ccc(S(N)(=O)=O)c(OC)c2)ccc1-c1ccccc1OC(F)(F)F [Example 561]
5,< 10,COc1cc(NC(=O)c2ccc(-c3ccccc3OC(F)(F)F)c(NCc3nccn3C)c2)ccc1S(N)(=O)=O [Example 577]
6,< 10,COC(=O)Nc1cc(C(=O)Nc2ccc(S(N)(=O)=O)c(OC)c2)ccc1-c1ccccc1OC(F)(F)F [Example 578]
7,< 10,CCOC(=O)Nc1cc(C(=O)Nc2ccc(S(N)(=O)=O)c(OC)c2)ccc1-c1ccccc1CC [Example 581]
8,< 10,COc1cc(NC(=O)c2ccc(-c3ccccc3OC3CC3)c(CO)c2)ccc1S(N)(=O)=O [Example 590]
9,< 10,COc1ccc(-c2ccc(C(=O)Nc3ccc(S(N)(=O)=O)c(OC)c3)cc2CNCC(F)F)c(C)c1 [Example 592]
10,< 10,COc1cc(F)ccc1-c1ccc(C(=O)Nc2ccc(S(N)(=O)=O)c(OC)c2)cc1CNCC(F)F [Example 593]
11,> 10,COc1cccc(NC(=O)c2ccc(-c3ccccc3)c(CN3CCCCC3)c2)c1 [compound 1]
12,> 10,NS(=O)(=O)c1cccc(NC(=O)c2ccc(-c3ccccc3)c(CN3CCCCC3)c2)c1 [compound 2]

# Same assay, conditions: rat renal soluble fraction, [3H] aldosterone 2 nM, in the presence of 2 μM RU-486
row,binding affinities for aldosterone receptor,Compound
1,very few binding affinities,"COc1cccc(NC(=O)c2ccc(-c3ccccc3)c(CN3CCCCC3)c2)c1 [compound 1, reference compound]"
2,very few binding affinities,"NS(=O)(=O)c1cccc(NC(=O)c2ccc(-c3ccccc3)c(CN3CCCCC3)c2)c1 [compound 2, reference compound]"

# Same assay, conditions: read-out: Inhibition rates (%) in 100 μM
row,inhibition at 100 µM [%],Compound
1,7,COc1cccc(NC(=O)c2ccc(-c3ccccc3)c(CN3CCCCC3)c2)c1 [compound 1]
2,11,NS(=O)(=O)c1cccc(NC(=O)c2ccc(-c3ccccc3)c(CN3CCCCC3)c2)c1 [compound 2]

# Tested on: normal rat
# Assay: Antagonism (in vivo antagonist activity) against reduction of Na/K ratios in DOCA induced urine of normal rat
# Conditions: oral administration 30 minutes before DOCA 0.3 mg/kg s.c., urine collected for 8 hours
# Method: Antagonism (In Vivo Antagonist Activity) Against Reduction of Na/K Ratios in Deoxycorticosterone Acetate (DOCA) Induced Urine of Normal Rat
# A rat was encaged in a metabolism cage and was collected urine for 8 hours. When a test article was orally administered, it was administered in 5 ml/kg of dosage solution amounts using 0.5% methylcellulose as a solvent. DOCA was dissolved in corn oil in 0.3 mg/ml, and was subcutaneously administered in 1 ml/kg (0.3 mg/kg). Administration timing for a test article was 30 minutes before DOCA administration. 20 ml/kg of Solution amounts of saline was orally administered when administering DOCA in order to stabilize urine amounts and to secure enough amounts. Collected urine was analyzed its amounts, and then electrolyte (sodium: Na^+ and potassium: K^+) concentrations in urine were analyzed by an automatic biochemical analyzer (manufactured by JEOL Ltd., JCA-BM1650) to calculate ratios of Na^+ and K^+.
row,Compound,suppression of reduction of Na/K ratios in DOCA-induced urine
1,COC(=O)[C@@H]1CC2=CC(=O)CC[C@]2(C)[C@@]23O[C@@H]2C[C@@]2(C)[C@@H](CC[C@@]24CCC(=O)O4)[C@H]13 [eplerenone],suppressed reduction of Na/K ratios in DOCA-induced urine in a dose-dependent manner
